# Results: article PMC8571951, “An activity‐based bioprobe differentiates a novel small molecule inhibitor from a LOXL2 antibody and provides renewed promise for anti‐fibrotic therapeutic strategies” (Clinical and Translational Medicine, 2021)
# Target: T1, LOXL2 (Rattus norvegicus, UniProt B5DF27)
# T1 construct: from tissue; host or cells: rat plasma and lung
# T1 sequence (B5DF27 26-776): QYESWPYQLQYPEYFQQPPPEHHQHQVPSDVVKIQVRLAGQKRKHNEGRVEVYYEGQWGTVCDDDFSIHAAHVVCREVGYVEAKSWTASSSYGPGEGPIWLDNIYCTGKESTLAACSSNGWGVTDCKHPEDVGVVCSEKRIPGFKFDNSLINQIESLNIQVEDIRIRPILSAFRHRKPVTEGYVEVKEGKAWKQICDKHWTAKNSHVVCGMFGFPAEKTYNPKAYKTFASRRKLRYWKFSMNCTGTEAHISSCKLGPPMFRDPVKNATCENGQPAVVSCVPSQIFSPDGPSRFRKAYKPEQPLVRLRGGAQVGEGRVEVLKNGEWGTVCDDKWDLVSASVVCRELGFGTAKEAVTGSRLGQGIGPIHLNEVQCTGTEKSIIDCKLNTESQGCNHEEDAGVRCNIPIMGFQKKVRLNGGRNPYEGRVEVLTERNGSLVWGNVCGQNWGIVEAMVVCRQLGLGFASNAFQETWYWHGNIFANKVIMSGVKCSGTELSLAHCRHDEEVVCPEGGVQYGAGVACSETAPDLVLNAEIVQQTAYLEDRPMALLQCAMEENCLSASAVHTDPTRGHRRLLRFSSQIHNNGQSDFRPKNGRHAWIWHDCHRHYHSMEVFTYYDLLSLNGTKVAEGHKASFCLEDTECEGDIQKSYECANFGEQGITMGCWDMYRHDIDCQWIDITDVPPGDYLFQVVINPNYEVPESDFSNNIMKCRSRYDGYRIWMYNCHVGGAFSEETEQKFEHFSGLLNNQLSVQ
# Test: Ex vivo LOXL2 activity after oral dosing in rats (PXS-5878/Simoa)
# Conditions: 30 mg/kg oral
# Protocol: FIGURE 2 Characteristics of PXS‐5338 and inhibition of lysyl oxidase‐like 2 (LOXL2) enzymatic activity in vitro and in vivo. (A) Chemical structure of PXS‐5338. […] (B) Tissue levels of PXS‐5338 measured 1 and 4 h after a single oral dose of 30 mg/kg in the rat. […] Average data from three different animals. (C) Concentration‐dependent inhibition of native […] LOX and rh LOXL1‐4 in a standard Amplex Red assay with 30 min pre‐incubation; n ≥3 independent experiments, standard error of mean (SEM). (D) PXS‐5338 inhibits rh LOXL2 in a time‐dependent manner, with increasing potency observed upon longer incubation with the enzyme. LOXL2 activity data devised from Amplex Red assay using putrescine as substrate and varying pre‐incubation times; n ≥3 independent experiments, standard error of mean (SEM). […] AB0023 and the corresponding isotype control antibody GS834298 were kindly provided by Gilead. Concentration‐response curves for the pan‐LOX inhibitor BAPN and LOXL2‐selective inhibitor PXS‐5338 are included for comparison. Data represented as mean ± SD with n = 5/concentration. […] To enable translation of preclinical data into the clinic, human plasma was incubated with different concentrations of PXS‐5338 for 30 min and the PXS‐5878/Simoa® platform used to measure the residual activity. […]
structure (smiles),measurement,setting,value
CC(C)c1c(Cc2ccc(S(C)(=O)=O)nc2)c2ncccc2n1C/C(F)=C/CN [PXS‐5338],Inhibition of LOXL2 activity in the lung (as in plasma),4 h,almost complete inhibition
same,Inhibition of LOXL2 activity remaining,24 h,no inhibition remained
